The text below walks through data of patent US20070010485A1 (priority 2005, published 2007).

Structures can show the parent of a compound that is named as a salt.

Series [1] deals with P-gp expressing CD33(+) leukemia cells. The settings on record: cited from earlier work.
For series [2] the following is noted: use of CAPTISOL

With `O=C(C(c1ccccc1)c1ccccc1)N1CCN(CC(O)COc2cccc3ncccc23)CC1.O=C(O)/C=C/C(=O)O` (centres unmarked) [MS-209], the “reversal of resistance to Mylotarg” value in series [1] is “reverse the resistance to Mylotarg”.

As for `OC(COc1cccc2ncccc12)CN1CCN([C@@H]2c3ccccc3[C@@H]3[C@H](c4ccccc42)C3(F)F)CC1` (some centres unmarked) [zosuquidar trihydrochloride], the “increase in water solubility with CAPTISOL” value in series [2] is greater than 5 fold.
